Experimental data from PubChem BioAssay AID2060900 (Molecular Pharmacology Branch, DTP, NCI, 2025).

Tested on: 521955-158-R2-J5-PDC complex spheroids, viability
Experiment: Anticancer human tumor 521955-158-R2-J5-PDC patient-derived pancreatic carcinoma cell line growth inhibition [RAS]
Settings: for viability, T/C: stronger effect = lower value
Source text: RAS pathway inhibitors in Combinations in Complex Spheroids
A high-throughput screen of multi-cell type tumor spheroids was designed to identify active combinations of RAS pathway inhibitors and targeted small molecules. Complex spheroids include a stromal component modeled by human endothelial cells (HUVEC) and fibroblasts modeled by human mesenchymal stem cells (MSCs). The concentration ranges selected for each drug and investigational agent were based upon clinically achievable concentrations if the clinical Cmax of the agent was known.
Compounds. The drugs and investigational agents: abemaciclib (NSC768073), cobimetinib (NSC768068), divarasib (GDC6063, NSC841802), docetaxel (NSC628503), GDC-1971 (RLY-1971, NSC841576), gemcitabine (NSC613327), inavolisib (NSC800729), ipatasertib (NSC767898), KB-0742 (NSC834161), MRTX-1133 (NSC836407), osimertinib (NSC779217), RMC-4630 (NSC839698), RMC-6236 (NSC851965), RMC-6291 (NSC852671), Ro-3306 (NSC812927), sapanisertib (NSC764658), SN-38 (NSC673596), staurosporine (NSC755774), SY5609 (NSC837396), and tovorafenib (DAY101, NSC766906), were obtained from the National Cancer Institute (NCI) Developmental Therapeutics Program Chemical Repository. The FDA-approved anticancer drug set is available from the NCI Developmental Therapeutics Program. […] The stock solutions were prepared in dimethyl sulfoxide (DMSO, Sigma-Aldrich, St. Louis, MO, cat. D2650) at 800-fold the tested concentration and stored at -70 degrees C prior to their use. All drugs and investigational agents were tested over a range starting from a high concentration at or near the clinical Cmax and decreasing in half-log increments. If the clinical Cmax for an agent had not been determined, the highest concentration tested was 10 microM.
Cell Culture. All cells were maintained in an incubator at 37 degrees C and 5% CO2 with 95% humidity. The PDC lines were cultured according to standard operating procedures established by the NCI PDMR. All PDCs were thawed and cultured in Matrigel-coated flasks prepared with a working solution of 1X Ham's F-12 nutrient mix, without supplementation (Invitrogen, Waltham, MA, cat. 11765054), 100 U/mL penicillin-streptomycin (Invitrogen, cat. 15140122), and 2.5% Matrigel (Corning Inc., Corning, NY, cat. 354248) for the first three passages. The 362531-283-R-J2-PDC and 782815-120-R-J1-PDC lines were cultured in 6C/Colon 1B media, which includes advanced DMEM/F-12 (Thermo Fisher Scientific, cat. 12634028), 10 mM HEPES (Thermo Fisher Scientific, cat. 15630080), 1X GlutaMAX supplement (Thermo Fisher Scientific, cat. 35050061), 0.1 mg/mL primocin (InvivoGen, San Diego, CA, cat. ant-pm-2), 10% defined fetal bovine serum, heat inactivated (HyClone Laboratories Inc., Logan, UT, cat. SH30070.03HI), 50% L-WRN conditioned media (ATCC, cat. CRL-3276), 1.25 mM N-Acetyl-L-cysteine (Sigma-Aldrich, cat. A9165), 10 mM nicotinamide (Sigma-Aldrich, cat. N0636), 1X B-27 supplement (Thermo Fisher Scientific, cat. 17504044), 1X N-2 supplement (Thermo Fisher Scientific, cat. 17502048), 50 ng/mL human EGF (Thermo Fisher Scientific, cat. PHG0311), and 10 microM Y-27632 dihydrochloride (Tocris Bioscience, cat. 1254). The K12877-001-R-J1-PDC line was cultured in 6I media, which includes all 6C/Colon 1B media plus 10 ng/mL human FGF-10 (PeproTech, cat. 100-26), 1 ng/mL human FGF-2 (PeproTech, cat. 100-18B), 1 µM prostaglandin E2 (Tocris Bioscience, cat. 2296), […] hydrocortisone (Sigma-Aldrich, cat. H4001), and […] bovine insulin (Sigma-Aldrich, cat. I6634). The K86415-001-R-J1-PDC line was cultured in 6D media, which includes all 6C/Colon 1B media components minus the L-WRN conditioned media. The 485176-168-R4-J1-PDC was cultured in PANC media, which includes all 6C/Colon 1B media plus 100 ng/mL human FGF-10 (PeproTech, cat. 100-26), 500 nM SB-431542 (Selleckchem, cat. S1067), and 10 nM gastrin (Tocris Bioscience, cat. 3006). […]

[1] = curve of first compound, second compound 0.0316 µM
[2] = curve of first compound, second compound 0.1 µM
[3] = curve of first compound, second compound 0.316 µM
[4] = curve of first compound, second compound 1 µM
[5] = curve of first compound, second compound 3.16 µM
[6] = curve of first compound, second compound 10 µM
[7] = second compound 0.0316 µM, first compound 0.0316 µM
[8] = second compound 0.0316 µM, first compound 0.1 µM
[9] = second compound 0.0316 µM, first compound 0.316 µM
[10] = second compound 0.0316 µM, first compound 1 µM
[11] = second compound 0.1 µM, first compound 0.0316 µM
[12] = second compound 0.1 µM, first compound 0.1 µM
[13] = second compound 0.1 µM, first compound 0.316 µM
[14] = second compound 0.1 µM, first compound 1 µM
[15] = second compound 0.316 µM, first compound 0.0316 µM
[16] = second compound 0.316 µM, first compound 0.1 µM
[17] = second compound 0.316 µM, first compound 0.316 µM
[18] = second compound 0.316 µM, first compound 1 µM
[19] = second compound 1 µM, first compound 0.0316 µM
[20] = second compound 1 µM, first compound 0.1 µM
[21] = second compound 1 µM, first compound 0.316 µM
[22] = second compound 1 µM, first compound 1 µM
[23] = second compound 3.16 µM, first compound 0.0316 µM
[24] = second compound 3.16 µM, first compound 0.1 µM
[25] = second compound 3.16 µM, first compound 0.316 µM
[26] = second compound 3.16 µM, first compound 1 µM
[27] = second compound 10 µM, first compound 0.0316 µM
[28] = second compound 10 µM, first compound 0.1 µM
[29] = second compound 10 µM, first compound 0.316 µM
[30] = second compound 10 µM, first compound 1 µM
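Note: compound exposure lasted seven days before the viability read.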
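Throughout, for viability, T/C: spheroids also contain HUVEC endothelial cells and mesenchymal stem cells as stroma.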

CCN1CCN(Cc2ccc(Nc3ncc(F)c(-c4cc(F)c5nc(C)n(C(C)C)c5c4)n3)nc2)CC1 + C#Cc1c(F)ccc2cc(O)cc(-c3ncc4c(N5CC6CCC(C5)N6)nc(OCC56CCCN5CC(F)C6)nc4c3F)c12
IC50 [1]: > 1000 nM | IC50 [2]: > 1000 nM | IC50 [3]: > 1000 nM | IC50 [4]: 316 nM | IC50 [5]: < 3.16 nM | IC50 [6]: < 3.16 nM | viability, T/C (second compound 0.0316 µM, first compound 0.00316 µM): 66.7% | viability, T/C (second compound 0.0316 µM, first compound 0.01 µM): 69.4% | viability, T/C [7]: 57.5% | viability, T/C [8]: 73.8% | viability, T/C [9]: 71.5% | viability, T/C [10]: 72.8% | viability, T/C (second compound 0.1 µM, first compound 0.00316 µM): 46% | viability, T/C (second compound 0.1 µM, first compound 0.01 µM): 65.2% | viability, T/C [11]: 59.2% | viability, T/C [12]: 61.2% | viability, T/C [13]: 65.9% | viability, T/C [14]: 66.6% | viability, T/C (second compound 0.316 µM, first compound 0.00316 µM): 61.2% | viability, T/C (second compound 0.316 µM, first compound 0.01 µM): 53.5% | viability, T/C [15]: 46.9% | viability, T/C [16]: 52.9% | viability, T/C [17]: 51.1% | viability, T/C [18]: 67.9% | viability, T/C (second compound 1 µM, first compound 0.00316 µM): 58.5% | viability, T/C (second compound 1 µM, first compound 0.01 µM): 56.4% | viability, T/C [19]: 58% | viability, T/C [20]: 45.5% | viability, T/C [21]: 49.5% | viability, T/C [22]: 56.1% | viability, T/C (second compound 3.16 µM, first compound 0.00316 µM): 50.2% | viability, T/C (second compound 3.16 µM, first compound 0.01 µM): 44.8% | viability, T/C [23]: 47.8% | viability, T/C [24]: 42.6% | viability, T/C [25]: 59.9% | viability, T/C [26]: 51% | viability, T/C (second compound 10 µM, first compound 0.00316 µM): 39.7% | viability, T/C (second compound 10 µM, first compound 0.01 µM): 37.2% | viability, T/C [27]: 30.9% | viability, T/C [28]: 31.4% | viability, T/C [29]: 36% | viability, T/C [30]: 24.7%

CC(=O)OC12COC1CC(O)C1(C)C(=O)C(O)C3=C(C)C(OC(=O)C(O)C(NC(=O)OC(C)(C)C)c4ccccc4)CC(O)(C(OC(=O)c4ccccc4)C21)C3(C)C (centres undefined) + C#Cc1c(F)ccc2cc(O)cc(-c3ncc4c(N5CC6CCC(C5)N6)nc(OCC56CCCN5CC(F)C6)nc4c3F)c12
IC50 [1]: < 31.6 nM | IC50 [2]: < 31.6 nM | IC50 [3]: < 31.6 nM | IC50 [4]: < 31.6 nM | IC50 [5]: < 31.6 nM | IC50 [6]: < 31.6 nM | viability, T/C [7]: 32.5% | viability, T/C [8]: 35.9% | viability, T/C [9]: 32.6% | viability, T/C [10]: 30.2% | viability, T/C (second compound 0.0316 µM, first compound 3.16 µM): 37.5% | viability, T/C (second compound 0.0316 µM, first compound 10 µM): 47.2% | viability, T/C [11]: 33.3% | viability, T/C [12]: 39.6% | viability, T/C [13]: 35.2% | viability, T/C [14]: 37.7% | viability, T/C (second compound 0.1 µM, first compound 3.16 µM): 35.6% | viability, T/C (second compound 0.1 µM, first compound 10 µM): 40.4% | viability, T/C [15]: 33.2% | viability, T/C [16]: 31.7% | viability, T/C [17]: 28.6% | viability, T/C [18]: 30.9% | viability, T/C (second compound 0.316 µM, first compound 3.16 µM): 37% | viability, T/C (second compound 0.316 µM, first compound 10 µM): 38.7% | viability, T/C [19]: 21.7% | viability, T/C [20]: 34.3% | viability, T/C [21]: 32.6% | viability, T/C [22]: 29.4% | viability, T/C (second compound 1 µM, first compound 3.16 µM): 51.5% | viability, T/C (second compound 1 µM, first compound 10 µM): 40.5% | viability, T/C [23]: 27.4% | viability, T/C [24]: 33.3% | viability, T/C [25]: 30.8% | viability, T/C [26]: 33.4% | viability, T/C (second compound 3.16 µM, first compound 3.16 µM): 31.1% | viability, T/C (second compound 3.16 µM, first compound 10 µM): 33% | viability, T/C [27]: 24.8% | viability, T/C [28]: 34.1% | viability, T/C [29]: 28.3% | viability, T/C [30]: 28.7% | viability, T/C (second compound 10 µM, first compound 3.16 µM): 32.1% | viability, T/C (second compound 10 µM, first compound 10 µM): 25.1%

CCn1c(-c2cccnc2C(C)OC)c2c3cc(ccc31)N1CCOC(CC(NC(=O)C(C(C)C)N(C)C(=O)C3(F)CCN(C(=O)C#CC(C)(C)N(C)C)CC3)C(=O)N3CCCC(N3)C(=O)OCC(C)(C)C2)C1 (centres undefined)
viability, T/C (compound 0.000949 µM): 101% [middle of 8 runs] | viability, T/C (compound 0.003 µM): 101% [middle of 8 runs] | viability, T/C (compound 0.03 µM): 94.8% [middle of 8 runs] | viability, T/C (compound 0.3 µM): 77.3% [middle of 8 runs] | IC50 (compound alone, run of 05/20/2024): > 300 nM
